Values of other authors in patent US8143297B2, “Heterocyclic derivatives as modulators of ion channels” (Vertex Pharmaceuticals Incorporated, priority 2008, dated 2012).

Assays:
Conditions in all cases: read-out: TTX IC50
[1] = target: NaV1.3 (Homo sapiens, UniProt Q9NY46)
[2] = target: NaV1.6 (Homo sapiens, UniProt Q9UQD0)
[3] = target: NaV1.8 (Homo sapiens, UniProt Q9Y5Y9)
[4] = target: NaV1.9 (Homo sapiens, UniProt Q9UI33)
[5] = target: NaV1.1 (Homo sapiens, UniProt P35498)
[6] = target: NaV1.2 (Homo sapiens, UniProt Q99250)

NaV1.8, sequence (Q9Y5Y9 whole entry, looked up): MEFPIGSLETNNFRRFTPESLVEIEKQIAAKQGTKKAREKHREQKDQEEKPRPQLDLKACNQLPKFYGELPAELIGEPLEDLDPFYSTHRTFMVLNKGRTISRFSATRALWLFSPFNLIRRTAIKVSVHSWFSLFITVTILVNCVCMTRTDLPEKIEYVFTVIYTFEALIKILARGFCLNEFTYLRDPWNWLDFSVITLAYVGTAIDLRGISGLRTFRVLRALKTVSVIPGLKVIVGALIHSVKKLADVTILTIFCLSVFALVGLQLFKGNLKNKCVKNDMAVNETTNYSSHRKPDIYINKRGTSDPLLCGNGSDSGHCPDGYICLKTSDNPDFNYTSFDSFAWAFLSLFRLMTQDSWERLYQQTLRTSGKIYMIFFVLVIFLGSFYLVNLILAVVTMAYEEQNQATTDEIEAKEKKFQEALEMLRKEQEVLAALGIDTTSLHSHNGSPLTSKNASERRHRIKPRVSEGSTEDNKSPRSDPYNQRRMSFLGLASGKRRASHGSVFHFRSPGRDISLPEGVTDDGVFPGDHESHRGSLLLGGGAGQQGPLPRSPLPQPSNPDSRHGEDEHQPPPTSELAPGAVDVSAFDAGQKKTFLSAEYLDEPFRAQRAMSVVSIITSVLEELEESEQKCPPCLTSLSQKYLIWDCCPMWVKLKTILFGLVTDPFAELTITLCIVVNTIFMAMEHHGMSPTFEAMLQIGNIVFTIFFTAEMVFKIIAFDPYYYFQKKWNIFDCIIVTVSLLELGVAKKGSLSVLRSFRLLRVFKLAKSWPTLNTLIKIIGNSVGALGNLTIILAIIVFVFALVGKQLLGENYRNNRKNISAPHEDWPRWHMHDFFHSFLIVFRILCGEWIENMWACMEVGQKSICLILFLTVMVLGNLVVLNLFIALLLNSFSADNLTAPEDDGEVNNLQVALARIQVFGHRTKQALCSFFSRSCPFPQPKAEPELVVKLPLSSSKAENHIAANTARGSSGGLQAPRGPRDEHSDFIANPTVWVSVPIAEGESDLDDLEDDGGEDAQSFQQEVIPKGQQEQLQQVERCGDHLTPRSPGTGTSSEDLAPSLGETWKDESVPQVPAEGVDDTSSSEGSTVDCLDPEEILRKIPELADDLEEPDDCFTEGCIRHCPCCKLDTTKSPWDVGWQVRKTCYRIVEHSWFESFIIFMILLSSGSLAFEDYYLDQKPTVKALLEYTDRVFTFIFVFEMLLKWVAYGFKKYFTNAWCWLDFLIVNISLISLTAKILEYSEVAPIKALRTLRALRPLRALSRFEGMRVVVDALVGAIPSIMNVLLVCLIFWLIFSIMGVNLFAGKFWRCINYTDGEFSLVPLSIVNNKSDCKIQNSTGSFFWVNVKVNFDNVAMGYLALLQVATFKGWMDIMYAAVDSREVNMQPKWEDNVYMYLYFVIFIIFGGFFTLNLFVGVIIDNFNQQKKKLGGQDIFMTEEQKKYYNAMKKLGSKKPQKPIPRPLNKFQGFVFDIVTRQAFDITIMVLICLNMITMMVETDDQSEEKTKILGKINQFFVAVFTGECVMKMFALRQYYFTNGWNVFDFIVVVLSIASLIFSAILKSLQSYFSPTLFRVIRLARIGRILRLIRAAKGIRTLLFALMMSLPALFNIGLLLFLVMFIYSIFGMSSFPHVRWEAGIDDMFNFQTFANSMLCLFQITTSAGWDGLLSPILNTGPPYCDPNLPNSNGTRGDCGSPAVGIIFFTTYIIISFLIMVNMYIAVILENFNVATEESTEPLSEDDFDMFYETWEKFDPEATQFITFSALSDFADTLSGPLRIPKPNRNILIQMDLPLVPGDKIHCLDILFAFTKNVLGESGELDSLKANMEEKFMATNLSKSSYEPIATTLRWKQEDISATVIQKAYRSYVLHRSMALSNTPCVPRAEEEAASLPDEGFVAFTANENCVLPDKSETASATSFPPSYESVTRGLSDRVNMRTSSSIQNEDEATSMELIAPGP
NaV1.6, sequence (Q9UQD0 whole entry, looked up): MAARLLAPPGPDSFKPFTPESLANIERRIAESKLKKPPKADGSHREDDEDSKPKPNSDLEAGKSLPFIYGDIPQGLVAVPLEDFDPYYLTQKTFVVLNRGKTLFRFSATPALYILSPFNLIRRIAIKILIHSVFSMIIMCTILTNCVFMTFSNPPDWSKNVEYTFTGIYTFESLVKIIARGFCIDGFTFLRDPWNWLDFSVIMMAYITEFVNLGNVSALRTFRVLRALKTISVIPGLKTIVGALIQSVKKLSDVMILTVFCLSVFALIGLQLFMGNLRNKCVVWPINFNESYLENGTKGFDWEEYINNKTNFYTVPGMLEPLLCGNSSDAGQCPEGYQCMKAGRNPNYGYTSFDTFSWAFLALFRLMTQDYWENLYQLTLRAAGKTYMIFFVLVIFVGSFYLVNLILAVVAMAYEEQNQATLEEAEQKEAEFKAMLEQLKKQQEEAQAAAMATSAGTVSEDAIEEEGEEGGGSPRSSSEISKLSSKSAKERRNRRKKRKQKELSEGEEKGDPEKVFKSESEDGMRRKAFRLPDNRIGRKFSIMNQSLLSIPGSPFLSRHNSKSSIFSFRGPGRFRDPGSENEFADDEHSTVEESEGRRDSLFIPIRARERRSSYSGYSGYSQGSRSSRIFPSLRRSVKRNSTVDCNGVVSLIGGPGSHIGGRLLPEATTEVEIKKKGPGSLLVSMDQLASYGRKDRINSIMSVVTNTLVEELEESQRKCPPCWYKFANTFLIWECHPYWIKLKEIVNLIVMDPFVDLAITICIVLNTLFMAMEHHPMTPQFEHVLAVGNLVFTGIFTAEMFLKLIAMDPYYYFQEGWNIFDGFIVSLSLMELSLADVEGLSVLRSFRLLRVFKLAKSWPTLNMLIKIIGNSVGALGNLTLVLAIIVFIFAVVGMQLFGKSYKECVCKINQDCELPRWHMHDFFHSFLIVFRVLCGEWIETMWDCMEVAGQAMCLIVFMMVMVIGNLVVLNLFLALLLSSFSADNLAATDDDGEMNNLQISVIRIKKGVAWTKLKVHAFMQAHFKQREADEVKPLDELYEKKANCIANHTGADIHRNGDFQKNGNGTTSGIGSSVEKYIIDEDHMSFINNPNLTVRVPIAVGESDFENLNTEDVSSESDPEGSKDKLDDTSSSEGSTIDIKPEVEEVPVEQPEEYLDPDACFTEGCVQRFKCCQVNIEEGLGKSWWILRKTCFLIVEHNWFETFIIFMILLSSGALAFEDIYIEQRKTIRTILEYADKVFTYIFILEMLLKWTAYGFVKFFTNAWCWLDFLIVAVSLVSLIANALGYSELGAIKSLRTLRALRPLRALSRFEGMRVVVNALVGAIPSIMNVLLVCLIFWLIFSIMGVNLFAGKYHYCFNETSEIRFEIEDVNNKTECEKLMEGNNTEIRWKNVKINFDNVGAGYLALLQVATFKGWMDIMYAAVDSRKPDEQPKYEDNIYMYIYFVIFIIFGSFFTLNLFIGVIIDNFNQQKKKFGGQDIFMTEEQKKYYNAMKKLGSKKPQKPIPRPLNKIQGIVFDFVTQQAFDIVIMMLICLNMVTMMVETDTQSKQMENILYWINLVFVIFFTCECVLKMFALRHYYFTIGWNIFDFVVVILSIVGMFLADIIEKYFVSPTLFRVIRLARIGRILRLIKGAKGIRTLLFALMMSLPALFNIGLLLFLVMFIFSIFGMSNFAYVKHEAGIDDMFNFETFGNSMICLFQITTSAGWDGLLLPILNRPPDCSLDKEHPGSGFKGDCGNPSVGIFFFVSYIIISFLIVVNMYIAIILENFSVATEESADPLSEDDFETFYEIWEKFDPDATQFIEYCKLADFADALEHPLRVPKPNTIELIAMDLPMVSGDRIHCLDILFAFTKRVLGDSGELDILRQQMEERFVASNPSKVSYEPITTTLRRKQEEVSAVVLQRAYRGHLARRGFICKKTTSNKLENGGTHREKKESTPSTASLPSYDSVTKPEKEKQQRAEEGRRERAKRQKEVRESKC

## NC1=N[C@H](O)[C@H]2[C@H]3O[C@]4(O)O[C@@H]([C@@H](O)[C@@]2(N1)[C@@H]4O)[C@]3(O)CO [TTX, tetrodotoxin]
[1]
  IC50: 15 nM
[2]
  IC50: 6 nM
[3]
  IC50: > 50 µM
[4]
  IC50: 1000 nM
[5]
  IC50: 10 nM
[6]
  IC50: 10 nM
